According to patent US20260060964A1, “METHODS AND COMPOSITIONS FOR TREATING SEPSIS” (Antivirus Therapeutics, priority 2021, published 2026):

Experiments:
[1] = tested on: enterovirus; assay: virological efficacy: EV culture and PCR in neonates with suspected enterovirus sepsis, placebo-controlled study; format: in vivo, human
Description: (§1) Sixty-one subjects were enrolled; 43 randomized to the treatment group and 18 to the placebo group (FIG. 1). Of these, 43 (70%) were confirmed EV-positive: 31 in the treatment group and 12 in the placebo group. The study was terminated prior to full accrual due to expiration of study drug. […] 8/18 (44%) in the placebo group and lost-to-follow-up in 9/43 (21%) subjects in the treatment group v. 1/18 (6%) in the placebo group. Neonates with suspected EV sepsis (hepatitis, coagulopathy, and/or myocarditis) were enrolled at 19 centers from June 1999-December 2010.
(§2) A 2:1 study drug: placebo randomization with randomly permuted block sizes was used. Randomization codes were accessible only to biostatistical personnel at the coordinating center. Subjects initially received 5.0 mg/kg/dose of a 40 mg/mL liquid formulation of pleconaril (ViroPharma, Inc.; Exton, PA) or matching placebo identical in composition except lacking active study drug. The liquid formulation expired on May 31, 2002, after which the formulation was changed by the manufacturer to a 40 mg/mL suspension. Subjects received 8.5 mg/kg/dose of pleconaril suspension (shown to provide similar drug exposure as 5.0 mg/kg/dose of pleconaril liquid) or matching placebo. Both pleconaril formulations and matching placebos were administered every 8 hours×7 days in 1.0 mL of breast milk or formula by mouth or orogastric tube and were given to subjects who were otherwise NPO. Subjects were permitted to receive antibiotics, acyclovir, cardiotropic medications, and IVIG. Subjects for whom an etiology for illness other than EV infection was documented after enrollment had study drug/placebo discontinued.
(§3) A target sample size of 45 subjects with confirmed EV disease, with an expectation that approximately 67% of enrolled subjects would be confirmed to be EV-infected, was chosen to provide sufficient power to detect a reduction in viral shedding from the oropharynx from 96% to 70% on day 5. EV-confirmed subjects (culture- or PCR-positive) were included in virologic and clinical efficacy analyses, all enrolled subjects were included in safety analyses, and pleconaril recipients for whom pharmacokinetic data were obtained (whether or not EV-infected) were included in pharmacokinetic analyses. Survival analyses were conducted on the total enrolled cohort and on EV-confirmed subjects.
(§4) Fisher's Exact Test was utilized for comparisons of categorical factors and the Kruskal-Wallis and Mann Whitney Tests for continuous factors, with medians and ranges presented. Kaplan-Meier curves and log-rank statistics were utilized to assess differences in duration of culture and PCR positivity and survival between study groups. Changes in toxicity grades from baseline and adverse event rates were compared by chi-square tests.
Specimens for EV culture and polymerase chain reaction (PCR) were obtained from the oropharynx, rectum, urine, and serum on days 1-5, 7, 10, and 14. Plasma for pharmacokinetic analysis was obtained on day 1 (2, 4, and 8 hours after study drug administration) and days 3 and 7 (prior to and 2 and 4 hours after administration). Hematology and chemistry tests were obtained on study days 1, 3, 5, 7, 10, and 14 and urinalyses on days 1 and 7. Persisting abnormalities were followed at visits at 2, 6, 12, 18, and 24 months. Adverse events were recorded at each evaluation, and relationship to study treatment was determined by site investigators.
The primary endpoint was the percentage of patients with a positive viral culture from the oropharynx five days after beginning study drug. Secondary endpoints included duration of culture positivity from oropharynx, rectum, urine and serum; changes in laboratory values reflecting resolution or progression of EV disease or drug toxicity; duration of hospitalization; time to resolution of organ abnormalities; survival; and pleconaril pharmacokinetics. […]

[2] = tested on: neonatal enterovirus infections; assay: clinical efficacy: survival of neonates with suspected enterovirus sepsis, placebo-controlled study; format: in vivo, human
Description: as §1, §2, §3, §4
The primary endpoint was the percentage of patients with a positive viral culture from the oropharynx five days after beginning study drug. Secondary endpoints included duration of culture positivity from oropharynx, rectum, urine and serum; changes in laboratory values reflecting resolution or progression of EV disease or drug toxicity; duration of hospitalization; time to resolution of organ abnormalities; survival; and pleconaril pharmacokinetics. Tertiary endpoints included duration of blood product (fresh frozen plasma, packed red blood cells, platelets, other products) and inotropic support.

[3] = safety analysis: adverse events in enrolled neonates; format: in vivo, human
Procedure: as §2, with “discontinued. […]” for “discontinued.”
(§5) Specimens for EV culture and polymerase chain reaction (PCR) were obtained from the oropharynx, rectum, urine, and serum on days 1-5, 7, 10, and 14. […] Adverse events were recorded at each evaluation, and relationship to study treatment was determined by site investigators.

[4] = plasma pharmacokinetics in neonates; format: in vivo, human; details: on D1
Procedure: as §2, with “discontinued. […]” for “discontinued.”
as §5

[5] = 25° C.; cited from earlier work
[6] = tested on: CYP 3A; details: oral delivery at 200-400 mg dose level; cited from earlier work
[7] = tested on: human respiratory picornavirus; details: nasal thixotropic formulation, 12 mg per day nasal spray v. 400 mg oral dose; cited from earlier work

**Q.** What does the source list for `Cc1cc(CCCOc2c(C)cc(-c3noc(C(F)(F)F)n3)cc2C)on1` [Pleconaril, 3-{3,5-dimethyl-4-[3-(3-methylisoxazol-5-yl)propoxy]phenyl}-5-(trifluoromethyl)-1,2,4-oxadiazole]?
**A.** EV-confirmed subjects culture-positive from the oropharynx ([1]; day 1, treatment group, 6 of 24): 25%; subjects shedding cultivable virus from the oropharynx ([1]; day 5 (primary endpoint)): no subjects; persistence of PCR positivity from OP, compared with placebo ([1]; oropharynx, pleconaril group v. placebo): shorter; time to culture negativity of all sites combined, compared with placebo ([1]; pleconaril group v. placebo): shorter; median time to culture-negativity from all sites among culture-positive subjects ([1]; treatment group (19 subjects) v. 7.0 days placebo, p=0.08): 4.0 days; median time to sustained culture-negativity, urine ([1]; treatment group v. 7.0 days placebo, p=0.05): 4.0 days; median time to sustained oropharyngeal culture negativity ([1]; treatment group, placebo also 3.0): 3.0 days; cumulative survival v. placebo, EV-confirmed subjects ([2]; over two months): trends in cumulative survival favoring the treatment group; cumulative survival over two months v. placebo, all enrolled subjects ([2]; p=0.02): greater; cumulative survival over 18 months v. placebo ([2]; p=0.07 among all subjects, p=0.23 among EV-confirmed subjects): continued to exceed; subjects who died, EV-confirmed subjects ([2]; treatment group 7/31 v. placebo 5/12 (42%)): 23%; subjects who died, all enrolled subjects ([2]; treatment group 10/43 v. placebo 8/18 (44%)): 23%; subjects with adverse events whose events were judged possibly/probably treatment-related ([3]; treatment group v. 18% placebo): 3%; enrolled subjects who experienced adverse events ([3]; treatment group v. 94% placebo): Eighty-six; share with concentrations below IC90 [4]: 41%; solubility in water [5]: < 0.02 µg/mL; induction of CYP 3A (side effect) [6]: induction of CYP 3A; clinical/antiviral effect of nasal spray compared with oral dose [7]: roughly similar clinical/antiviral effect
